ChEMBL document CHEMBL3739291, “3-AminooxazolidinoneAHL analogs as hydrolytically-stable quorum sensingagonists in Gram-negative bacteria” (Medchemcomm, 2015)
Calls of active or inactive are those of the source. No cut-off for these calls is given here.

Assays:
[1] = target: T1, CviR transcriptional regulator (Chromobacterium violaceum) (UniProt D3W065); test: Antagonist activity at Chromobacterium violaceum CV026 CviR assessed as inhibition of C4-HSL-induced violacein production preincubated at 32 degC for day 1 followed by further incubation at 25 degC on day 2 by agar plate assay
T1 sequence (whole entry): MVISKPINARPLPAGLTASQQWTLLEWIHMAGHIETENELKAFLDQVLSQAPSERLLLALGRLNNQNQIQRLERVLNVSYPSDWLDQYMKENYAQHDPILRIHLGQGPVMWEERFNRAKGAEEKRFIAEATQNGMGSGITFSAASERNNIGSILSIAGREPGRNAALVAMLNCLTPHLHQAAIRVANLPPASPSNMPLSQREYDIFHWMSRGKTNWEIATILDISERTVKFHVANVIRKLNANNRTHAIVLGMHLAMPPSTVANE

[2] = Stability in 180 mM Tris-HCl buffer at pH 8 measured for 3 hrs by HPLC analysis; assay type: physicochemical; conditions: pH 8, 3 h
[3] = Agonist activity at Escherichia coli JM109 LasR assessed as induction of bioluminescence after 8 hrs by luminometric analysis
[4] = target: T1, CviR transcriptional regulator (Chromobacterium violaceum); test: Agonist activity at Chromobacterium violaceum CV026 CviR assessed as production of violacein at 20 uM preincubated at 32 degC for day 1 followed by further incubation at 25 degC on day 2 by agar plate assay
[5] = target: T1, CviR transcriptional regulator (Chromobacterium violaceum); test: Antagonist activity at Chromobacterium violaceum CV026 CviR assessed as inhibition of C4-HSL-induced violacein production at 2 uM preincubated at 32 degC for day 1 followed by further incubation at 25 degC on day 2 by agar plate assay

| inhibition [1] | Stability [2] | EC50 [3] [nM] | inhibition [5] | Structure (SMILES) | Activity [4] |
| --- | --- | --- | --- | --- | --- |
| Active | Stable | 2.1 | – | CCCCCCCCCC(=O)CC(=O)NN1CCOC1=O | – |
| – | – | – | – | CCCC(=O)N[C@H]1CCOC1=O | Active |
| – | – | – | – | CCCC(=O)NN1CCOC1=O | Active |
| – | Stable | 1.5 | Active | CCCCCCCCCC(=O)CC(=O)N[C@H]1CCOC1=O | – |
